Data published in patent US8039670B2, “Analogs of alpha galactosyceramide and uses thereof” (Ludwig Institute for Cancer Research, priority 2005, dated 2011).

Experiments:
[1] = target: T1, human CD1d molecules (Homo sapiens, UniProt P15813); assay: Dissociation of ligand from hCD1d, surface plasmon resonance with 9B Fab; assay type: binding; settings: fold faster than α-GalCer
T1 construct: soluble human CD1d molecules; biotin (biotinylated); made in house
Description: FIG. 1 Comparison of dissociation rate of OCH and α-GalCer. Dissociation of ligand from hCD1d. The indicated hCD1d (α-Gal Cer or OCH) complex was loaded onto a Surface Plasmon resonance (Biacore) sensor surface at t=0 and the amount of hCD1d remaining at the indicated time point measured using the Fab 9B.
Using the 9B Fab we looked at the rate of dissociation of all the tested compounds from soluble human CD1d molecules using surface plasmon resonance. Biotinylated CD1d-lipid complexes were immobilized to streptavidin-coated chips and the level of binding of the 9B Fab was measured over time. The loss of binding of the antibody over time was used to determine the rate of lipid dissociation from CD1d molecules.

[2] = test system: DC; assay: Viability of analog-pulsed DC co-cultured with iNKT cells (propidium iodide); assay type: cell-based, human; settings: at concentration of maximal DC maturation
Protocol: (§1) Different analogs of α-GalCer as indicated or LPS were added to co-cultures of human DC and iNKT cells. (A) Maturation of the DC was assessed after 40 h, gating on CD11c positive cells. Histograms indicate the CD83 and CD86 profiles of DC from different treatments; the percentages indicate the percentage of CD83hi mature DC and the numbers in parenthesis, the mean fluorescence intensity of the population contained within the labeled gate. DC and iNKT cells were co-cultured in the presence of different analogs of α-GalCer for 24 hours. Supernatants were analyzed using ELISA for the presence of (B) IL-12p40 released by the DC and (C) IFN-γ from the iNKT cells. All the compounds tested induced weaker but significant cytokine production than α-GalCer, with the exception of arabinitolceramide. (D) Titration of α-GalCer, OCH or threitolceramide on DCs and co-culture with iNKT cells induces DC maturation in vitro. Cells were co-cultured in the presence of the indicated concentration of analog and the percentages of DC with increased CD83/CD80 are shown. […] Viability of α-GalCer or analog-pulsed DC was assessed after 40 h co-culture in the presence of iNKT cells by flow cytometry. Cells were stained with propidium iodide and the percentage of live CD11c gated cells remaining in the culture are shown.
(§2) To compare the functions of high affinity α-GalCer, intermediate affinity threitolceramide with the known, low affinity analog OCH, the three compounds were titrated onto DC and used to present to iNKT cells. Maturation of DC and DC viability were examined after 48 h.

[3] = test system: human DC; assay: DC maturation in co-culture of human DC and iNKT cells (flow cytometry CD83, CD86, CD38); assay type: cell-based; settings: titration on DC, 48 h
Protocol: as §1, with “All the compounds tested induced weaker but significant cytokine production than α-GalCer, with the exception of arabinitolceramide. (D) Titration of α-GalCer, OCH or threitolceramide on DCs and co-culture with iNKT cells induces DC maturation in vitro.” left out
Human monocyte-derived DC were pulsed with 150 ng of different inositol analogs and co-cultured with iNKT cells for 24 h. […] Numbers indicate the mean fluorescence intensity of the histogram gated on CD11c^+ cells.
Immature human DC were cultured in the presence of a human iNKT cell clone with or without analogs or vehicle at different concentrations.
as §2

T1 sequence (P15813 20-301 limits assumed): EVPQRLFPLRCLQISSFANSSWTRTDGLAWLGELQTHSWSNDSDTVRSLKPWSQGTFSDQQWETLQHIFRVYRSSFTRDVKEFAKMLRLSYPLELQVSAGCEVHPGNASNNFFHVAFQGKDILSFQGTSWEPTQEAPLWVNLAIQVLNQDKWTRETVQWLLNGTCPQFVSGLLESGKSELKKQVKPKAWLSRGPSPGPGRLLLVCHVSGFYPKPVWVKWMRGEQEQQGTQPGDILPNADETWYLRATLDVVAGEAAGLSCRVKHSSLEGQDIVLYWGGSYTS
T1 sequence (P61769 21-119 partner): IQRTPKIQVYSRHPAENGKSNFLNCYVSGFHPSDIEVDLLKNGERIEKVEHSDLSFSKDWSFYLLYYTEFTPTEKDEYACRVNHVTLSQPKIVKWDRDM

**Q.** For CCCCCCCCCCCCCCCCCCCCCCCC(=O)N[C@@H](CO[C@H]1O[C@H](CO)[C@H](O)[C@H](O)[C@H]1O)[C@H](O)[C@H](O)CCCCC [OCH, (2S,3S,4R)-1-O-(α-D-galactopyranosyl)-N-tetracosanoyl-2-amino-1,3,4-nonanetriol], which “rate of dissociation from hCD1d relative to α-GalCer” value [1] is on record?
**A.** 3.9 fold

**Q.** And the “DC viability (propidium iodide negative) compared with α-GalCer” value [2]?
**A.** significantly greater proportion of DC were propidium iodide negative

**Q.** What about the “concentration inducing maximal DC maturation” value [3] of the same molecule?
**A.** 67 ng/mL
